# In patent US11530213B2, “Naphthyridinone derivatives and their use in the treatment of arrhythmia” (NOVARTIS AG, priority 2016, dated 2022):
# Molecular target: GIRK1/4 (Homo sapiens (Human), UniProt P48544+P48549)
# Assay: GIRK1/4 inhibition, Quattro (IonWorks) population patch clamp, inward potassium current in GIRK 1/4 HEK293 stable cells (test assay No. 1)
# Type: cell-based
# Settings: percentage of current inhibition normalized to DMSO-only control
# Procedure, shortened: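 GIRK1/4-expressing HEK293 cells were recorded by IonWorks Quattro perforated patch (amphotericin B), with inward K+ current measured at 1200-1220 ms during a −120 to 40 mV ramp, before and after compound (50-0.1 µM or 0.5-0.01 µM final, quadruplicate). IC50 came from % current inhibition normalized to DMSO control.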
# Chain of GIRK1/4 (P48549 whole entry): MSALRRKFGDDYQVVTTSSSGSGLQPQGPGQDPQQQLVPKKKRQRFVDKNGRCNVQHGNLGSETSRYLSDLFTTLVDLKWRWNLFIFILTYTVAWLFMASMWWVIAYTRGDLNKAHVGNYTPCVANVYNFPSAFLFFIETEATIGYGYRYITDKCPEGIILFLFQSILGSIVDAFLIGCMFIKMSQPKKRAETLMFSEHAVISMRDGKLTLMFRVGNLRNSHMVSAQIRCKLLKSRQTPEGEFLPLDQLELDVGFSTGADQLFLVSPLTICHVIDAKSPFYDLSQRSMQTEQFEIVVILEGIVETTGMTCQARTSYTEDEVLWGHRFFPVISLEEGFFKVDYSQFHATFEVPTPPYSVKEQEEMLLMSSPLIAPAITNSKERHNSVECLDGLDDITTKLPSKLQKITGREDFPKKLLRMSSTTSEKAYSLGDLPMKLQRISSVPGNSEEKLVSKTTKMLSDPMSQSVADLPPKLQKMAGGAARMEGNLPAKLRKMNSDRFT
# Chain of GIRK1/4 (P48544 whole entry): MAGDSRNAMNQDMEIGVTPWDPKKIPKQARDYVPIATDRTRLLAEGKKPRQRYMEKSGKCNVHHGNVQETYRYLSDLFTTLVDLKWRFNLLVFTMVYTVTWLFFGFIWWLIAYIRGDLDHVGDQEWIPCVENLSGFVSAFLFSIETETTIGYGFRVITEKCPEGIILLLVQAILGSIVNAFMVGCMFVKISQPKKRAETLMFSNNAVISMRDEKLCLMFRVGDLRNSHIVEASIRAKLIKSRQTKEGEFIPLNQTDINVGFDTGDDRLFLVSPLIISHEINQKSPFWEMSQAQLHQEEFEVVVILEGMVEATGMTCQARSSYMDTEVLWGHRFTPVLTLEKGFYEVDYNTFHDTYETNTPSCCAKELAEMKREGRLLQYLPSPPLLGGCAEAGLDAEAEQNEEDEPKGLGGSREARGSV
row,IC50,Structure (SMILES)
1,1.86 µM,"Cc1cc(=O)c2c(OCC(O)CO)cncc2n1-c1c(Cl)cc(C#N)cc1Cl (stereo not shown) [Example 18, 3,5-dichloro-4-(5-(2,3-dihydroxypropoxy)-2-methyl-4-oxo-1,7-naphthyridin-1(4H)-yl)benzonitrile]"
2,0.073 µM,"COCCOCCOc1ncc(Cl)c2c1c(=O)cc(CO)n2-c1c(Cl)cccc1Cl [Example 11, 8-chloro-1-(2,6-dichlorophenyl)-2-(hydroxymethyl)-5-(2-(2-methoxyethoxy)ethoxy)-1,6-naphthyridin-4(1H)-one]"
3,0.159 µM,"O=c1cc(CO)n(-c2c(Cl)cccc2Cl)c2c(Cl)cnc(OC[C@H](O)CO)c12 [Example 2, (R)-8-chloro-1-(2,6-dichlorophenyl)-5-(2,3-dihydroxypropoxy)-2-(hydroxymethyl)-1,6-naphthyridin-4(1H)-one]"
4,0.28 µM,"Cc1cc(=O)c2c(-c3cc[nH]n3)cncc2n1-c1c(Cl)cc(C#N)cc1Cl [Example 72, 3,5-dichloro-4-(2-methyl-4-oxo-5-(1H-pyrazol-3-yl)-1,7-naphthyridin-1(4H)-yl)benzonitrile]"
5,0.365 µM,"O=c1cc(CO)n(-c2c(Cl)cccc2Cl)c2c(Cl)cnc(CC(O)CO)c12 (single isomer, unassigned) [Example 80, 8-Chloro-1-(2,6-dichlorophenyl)-5-(2,3-dihydroxypropyl)-2-(hydroxymethyl)-1,6-naphthyridin-4(1H)-one]"
6,0.032 µM,"CC1(C)OCC(COc2ncc(Cl)c3c2c(=O)cc(CO)n3-c2c(Cl)cccc2Cl)O1 (stereo not shown) [Example 57, 8-chloro-1-(2,6-dichlorophenyl)-5-((2,2-dimethyl-1,3-dioxolan-4-yl)methoxy)-2-(hydroxymethyl)-1,6-naphthyridin-4(1H)-one]"
7,0.431 µM,"O=c1cc(CO)n(-c2c(Cl)cccc2Cl)c2c(Cl)cnc(OCCOCCOCCOCCO)c12 [Example 7, 8-chloro-1-(2,6-dichlorophenyl)-5-(2-(2-(2-(2-hydroxyethoxy)ethoxy)ethoxy)ethoxy)-2-(hydroxymethyl)-1,6-naphthyridin-4(1H)-one]"
8,0.344 µM,"Cc1cc(=O)c2c(OCCOCCOCCOCCO)ncc(Cl)c2n1-c1c(Cl)cc(F)cc1C#N [Example 23, 3-chloro-2-(8-chloro-5-(2-(2-(2-(2-hydroxyethoxy)ethoxy)ethoxy)ethoxy)-2-methyl-4-oxo-1,6-naphthyridin-1(4H)-yl)-5-fluorobenzonitrile]"
9,2.27 µM,"O=c1cc(CO)n(-c2c(Cl)cccc2Cl)c2c(Cl)cnc(COCC(O)CO)c12 (stereo not shown) [Example 87, 8-Chloro-1-(2,6-dichlorophenyl)-5-((2,3-dihydroxypropoxy)methyl)-2-(hydroxymethyl)-1,6-naphthyridin-4(1H)-one]"
10,0.024 µM,"Cc1cc(=O)c2c(C(C)(O)C(=O)CO)ncc(Cl)c2n1-c1c(Cl)cccc1Cl (stereo not shown) [Example 89, 8-Chloro-1-(2,6-dichlorophenyl)-5-(2,4-dihydroxy-3-oxobutan-2-yl)-2-methyl-1,6-naphthyridin-4(1H)-one]"
